# According to patent US6884777B1, “Method for treating respiratory distress syndrome” (The Nemours Foundation, priority 2000, dated 2005):
# How the values were obtained:
# SP-A, SP-B, SP-C mRNA = assay: RT-PCR of surfactant protein mRNA in day 17 fetal lung explant cultures; format: cell-based, rat; conditions: 1 ng/ml leptin
# Procedure: Cultures were exposed to 1 ng/ml leptin (lanes 3, A-C) or control medium (lanes 2, A-C), and total RNA was isolated at the indicated day of culture. Total RNA was reverse transcribed and amplified with both β-actin and […] PCR primers. In each figure, lane 1 is the time of initiation of culture (day 0). Low levels of all surfactant RNAs were detected in the uncultured cells (lanes 1, A-C). The size of the β-actin RT/PCR product is 492 bp; the size of SP-A is 352 bp; SP-B is 201 bp, and SP-C is 284 bp.
# Qualitative RT/PCR detection of surfactant mRNA was performed using the Ambion QuantumRNA kit (Ambion, Austin, Tex.) and 1 μg of total RNA isolated from explants cultured for 3 days in culture. Lanes 1, 3,5: control day 3; lanes 2, 4, 6: 1 ng/ml leptin day 3.
# To explore the effect of gestational age on surfactant production in response to leptin, we exposed younger lung explant cultures (d17) to 1 ng/ml leptin. Total RNA was extracted by homogenizing the explants in 4M guanidine thiocyanate, applying the lysate on a Qiagen RNeasy column (Qiagen, Chatsworth, Calif.), and recovering total RNA according to the manufacturer's instructions. RNA was quantified by measurement of absorbancy at 260 nm (A260). The quality of RNA was assessed by the A260/A280 ratio and by separation on agarose gels. Total RNA (1 μg) was brought up to 10 μl in DEPC-treated water. The sample was heated to 75° C. for 3 min, placed on ice, and cDNA synthesis was performed by reverse transcription for 15 min at 42° C. in a 20 μl reaction containing 1×PCR buffer II (Perkin-Elmer), 5 mM MgCl2, 1.25 mM each dNTP, 1 U/μl RNasin (Promega), 12.5 μg/μl oligo (dT) 15, and 2.5 U/μl AMV reverse transcriptase (Promega Madison, Wis.). Subsequent amplification of the cDNA sequence was performed with 10 μl of the reverse transcription reaction in 1×Taq buffer, 5% DMSO, 25 pmol each primer (Table 1), and 1.25 U Taq polymerase in a 50 μl reaction volume.
# For assessment of the relative levels of SP-A, SP-B and SP-C transcripts, a multiplex RT/PCR reaction with β-actin was used. The temperature profile for the PCR reactions consisted of a 2 min melting step at 95° C., then 30 cycles of 30 s at 94° C., 30 s at 55° C., and 60 sec at 65° C., followed by a final extension step of 5 min at 72° C. RT-PCR products were separated by size on a 4% agarose gel and stained with ethidium bromide. Gel visualization and quantitative analysis of relative band intensities was performed using Eagle Eye II hardware and software (Stratagene, La Jolla, Calif.).
# However, leptin also increases the levels of P-actin in fetal lung explant cultures. […] Therefore, we chose to use 18S rRNA to determine the relative levels of surfactant mRNA because of the invariant expression of 18S rRNA across tissues and treatments. Since 18S rRNA is much more abundant than any mRNA species, modified 18S rRNA primers called competimers (Ambion) are used that cannot be extended by Taq polymerase. By adjusting the ratio of competimers to normal 18S rRNA primers, the RT/PCR signal for 18S rRNA can be decreased to the level of even rare messages, as described by the manufacturer. […] These experiments support the hypothesis that leptin has an effect on the maturation of type II alveolar cells.
# ob/ob mice = conditions: cited from earlier work
# cornea from normal rats = conditions: but not fa/fa Zucker rats, Sierra-Honigmann et al.; cited from earlier work
# type II alveolar cells = assay: Histologic analysis of fetal lung after antenatal treatment (alkaline phosphatase staining); format: in vivo, rat; conditions: antenatal treatment for 48 h, alkaline phosphatase staining (FIG. 6)
# Procedure: FIG. 6 depicts the effect of antenatal treatment with leptin or dexamethasone on fetal lung morphology. Fetal lung sections were stained with a histochemical stain for alkaline phosphatase, which identifies type II cells. Control, no leptin; dexamethasone (6 mg/ml for 48 h); leptin (0.25 mg/ml for 48 h).
# Histologic analysis of the lung tissue was done to determine the basis for the increased fetal lung weight. Type II cells were identified by alkaline phosphatase staining as previously described (Post and Smith, Am. Rev. Respir. Dis. 137: 525-30, 1988). Unfixed frozen 5 μm sections of fetal lung tissue were stained histochemically with alkaline phosphatase at pH 8.74 to identify type II alveolar cells. Slides were incubated for 60 minutes at 37° C. in 25 ml of 0.2M Tris-HCl buffer and 25 ml of deionized water, 5 mg of Naphthol AS-BI phosphate, 0.1 ml dimethylformamide, and 30 mg of fast red TR. The slides were then rinsed in 3 changes of deionized water, counterstained for 30 seconds in Harris hematoxylin and blued in running water for 3-5 minutes. Slides were mounted from water in Advantage™.
# [1] = system: leptin receptor OB-Rb mRNA; assay: RT-PCR of leptin receptor expression in day 17 fetal lung explant cultures; format: cell-based, rat; conditions: d17 fetal lung explants, 3 days; 1 ng/ml leptin or 10 nM dexamethasone
# Procedure: FIG. 4 depicts RT-PCR analysis of leptin receptor expression in day 17 fetal lung explant cultures. Total RNA was reverse transcribed and amplified with either the short (OB-Ra) or the long (OB-Rb) form of the leptin receptor. Day 0 (Cd0) represents the time of initiation of culture. The fetal lung explants were exposed for 3 days to either control medium (Cd3), 1 ng/ml leptin (Ld3), or 10 nM dexamethasone (Dexd3). The size of the OB-Ra RT/PCR product is 479 bp and OB-Rb is 262 bp.
# To explore the effect of gestational age on surfactant production in response to leptin, we exposed younger lung explant cultures (d17) to 1 ng/ml leptin. Total RNA was extracted by homogenizing the explants in 4M guanidine thiocyanate, applying the lysate on a Qiagen RNeasy column (Qiagen, Chatsworth, Calif.), and recovering total RNA according to the manufacturer's instructions. RNA was quantified by measurement of absorbancy at 260 nm (A260). The quality of RNA was assessed by the A260/A280 ratio and by separation on agarose gels. Total RNA (1 μg) was brought up to 10 μl in DEPC-treated water. […]
# [2] = system: isolated type II alveolar cells; assay: RT-PCR of surfactant and GAPDH mRNA in cultured isolated fetal type II alveolar cells; format: cell-based, rat; conditions: 1 ng/ml leptin, 24 h, d19 type II cells
# Procedure: FIG. 5 depicts RT-PCR analysis of surfactant and GADPH (glyceraldehyde phosphate dehydrogenase) mRNA expression in cultured isolated type II alveolar cells. Cells were exposed to either 1 ng/ml leptin (1 L) or 10 ng/ml leptin (10 L). Control cells were not exposed to leptin.
# To determine if the leptin effect on surfactant production was due to a direct effect of leptin on the type II alveolar cell, we determined whether the effects of leptin could be reproduced in isolated type II alveolar cells in culture. Alveolar type II cells were obtained from the lungs of 19-d gestation fetal rats by the method described by Bhandari et al., (Pediatr. Res. 41:166-71, 1997). In brief, lungs of 19-day gestation fetal rats were removed, dissected free of connective tissue and nonparenchymal pulmonary tissue, and cultured as explants for 40-48 h in serum free Waymouth MB 752/1 medium with penicillin and streptomycin in humidified 95% O2/5% CO2 at 37° C. […] The explant cells were then harvested and the cells dissociated using a solution of collagenase, trypsin and DNase. The mixed cell suspension was subjected to three differential adhesions to remove fibroblasts. The non-adherent suspension containing an enriched population of fetal type II cells was plated at 2×10^6 cells/35 mm dish in 2 ml of minimum essential medium containing penicillin (100 U/ml), kanamycin ([…]) and 2% fetal bovine serum. The cells were cultured for 20-22 h at 37° C. in […] (Bhandari et al., Pediatr. Res. 41:166-71, 1997). Cultures contain 90-95% type II cells of which >99% are viable as determined by exclusion of the vital dye, trypan blue. The usual yield of type II cells from the lungs of the fetuses (10-16) per pregnant rat is approximately 10^7 cells.
# Type II cells from d19 fetal lungs were cultured for 24 h and then exposed to either 1 or 10 ng/ml leptin for 24 h. Total RNA was isolated from these cells and then examined for SP-A, SP-B, SP-C, and GAPDH (housekeeping gene) mRNA expression.
# [3] = system: SP-B (surfactant protein-B); assay: Western blot of SP-B in 21-day gestation fetal rat lung explants cultured with leptin; format: cell-based; conditions: d21 explants
# Procedure: FIG. 1 is a Western blot analysis of SP-B (surfactant protein-B) from 21-day gestation, fetal rat lung explants cultured in the presence or absence of leptin. Fetal lung explants were exposed to either (A) 1 ng/ml or (B) 10 ng/ml leptin from initiation of culture (day 0). Explants were harvested and protein extracts were prepared on days (d) 1, 2, and 3 of culture. Western blots were probed with an antibody specific to rat SP-B.
# We have used a fetal lung explant model to mimic the conditions of the premature lung. Lungs from d21 rat fetuses, term being 22 days, were dissected free of heart, trachea and bronchi and placed in ice-cold serum free Waymouth medium and cut into 1 mm^3 pieces on a McIlwain tissue chopper. The lung explants were placed in tissue culture dishes that were scratched (along each half) to facilitate attachment of explants. The excess medium was aspirated and fresh medium (2 ml for 60 mm plate) was gently placed on the explants. The 17-21 d explants were incubated in 95% O2-5% CO2, since incubation of these explants in 5% CO2 in air can cause compression of airways (Gross and Wilson, J. Appl. Physiol. 55: 1725-32, 1983). The petri dishes were placed on a tilting platform and allowed to rest for 90 min in a humidified atmosphere in a CO2 incubator. Thereafter, the plates were tilted at 34 cycles per minute so that during each cycle, one half of the petri dish was exposed to gas phase and the other half was covered with the medium. Leptin at either 1 or 10 ng/ml was added to the explant cultures on the day of establishment of the culture (day 0). The explants were cultured for varying periods of time for up to 3 days, and protein extracts were prepared to establish a time course for leptin effects on the fetal lung. Surfactant proteins were separated by electrophoresis on 15% polyacrylamide—SDS gels, and transferred to nitrocellulose membranes by electroblotting. The membranes were blocked with 2% gelatin (BioRad), treated overnight with anti-SP-B, and then with secondary antibody (goat anti-rabbit HRP-conjugated antibody). […]
# pregnant rats = assay: Antenatal treatment of pregnant rats: weight of maternal and fetal lungs; format: in vivo, rat; conditions: delivery at d18; for Weight fetal lung (g)/g fetus / Average weight fetal lungs: antenatal treatment 48 h; for Average weight fetal lungs: n = 9; for increase of average fetal lung weight in relation to body weight: i.p. at d16 of gestation and 24 h later, leptin 1 mg/kg, dexamethasone 6 mg/kg, vs control
# Procedure: Leptin (1 mg/kg body weight) was administered to pregnant rats at d16 of gestation and 24 h later by intraperitoneal injection. Dexamethasone at 6 mg per kg body weight was administered at similar time intervals as leptin. In addition, the effect of a combination of leptin and dexamethasone treatment was tested. After 48 h of leptin, dexamethasone or leptin/dexamethasone exposure, premature delivery of the rat pups was induced at d18, which is similar to 30 weeks of gestation in the human. The fetuses from each litter were pooled and weighed, and various tissues from both the rat fetuses and mothers were also dissected and weighed. […] Antenatal treatment with dexamethasone increased fetal lung weight by 41%.
# [4] = d17 explants, multiplex RT/PCR with β-actin (FIG. 2)
# [5] = d17 lung explants, 3 days in culture
OB-Rb mRNA levels [1],Molecule,"SP-A mRNA levels (SP-A, SP-B, SP-C mRNA; [4])","SP-C mRNA levels (SP-A, SP-B, SP-C mRNA; [4])","SP-A mRNA level relative to 18S rRNA, increase (SP-A, SP-B, SP-C mRNA; [5])","SP-B mRNA level relative to 18S rRNA, increase (SP-A, SP-B, SP-C mRNA; [5])","SP-C mRNA level relative to 18S rRNA, increase (SP-A, SP-B, SP-C mRNA; [5])","levels of β-actin (SP-A, SP-B, SP-C mRNA; fetal lung explant cultures (FIG. 2))",respiratory depression (ob/ob mice; O'Donnell et al. 1999),volume-dependent decrease in lung compliance (ob/ob mice; Tankersley et al. 1998),neovascularization in cornea (cornea from normal rats),number of type II alveolar cells in fetal lung (type II alveolar cells),SP-A mRNA levels [2],SP-B mRNA levels [2],SP-C mRNA levels [2],"SP-B production ([3]; 1 ng/ml leptin, 48 or 72 h exposure, vs control cultures)","SP-B levels ([3]; 10 ng/ml leptin, 48 and 72 h)","SP-B production ([3]; 10 ng/ml leptin, 24 h)",Weight fetal lung (g)/g fetus (pregnant rats),Average weight fetal lungs (pregnant rats),increase of average fetal lung weight in relation to body weight (pregnant rats)
decreases,leptin,significantly increases,significantly increases,1.6 fold,5 fold,2 fold,increases,prevent respiratory depression,ameliorated,induces neovascularization,increase in the number of type II alveolar cells,increased,increased,increased,increases SP-B production above that of the control cultures,decreases SP-B levels,increases SP-B production,0.56 g/g fetus,0.87 (n = 9) g,51%
–,"C[C@@H]1C[C@H]2[C@@H]3CCC4=CC(=O)C=C[C@]4(C)[C@@]3(F)[C@@H](O)C[C@]2(C)[C@@]1(O)C(=O)CO [Dexamethasone, dexamethasone, reference compound]",–,–,–,–,–,–,–,–,–,–,–,–,–,–,–,–,0.52 g/g fetus,0.79 (n = 9) g,41%
